# Assay results published in BindingDB's records for doi:10.1021/jm9707028 (Boehringer Ingelheim Pharmaceuticals, 1998).
# Experiments:
# Test in all cases: HIV-1 RT Assay
# [1] = biological target: T1, Gag-Pol polyprotein [600-1027,Y787L]/[600-1155,Y787L] (Human immunodeficiency virus 1, UniProt P03366, Y787L)
# T1 construct: 600-1027; 600-1155
# [2] = biological target: T2, Gag-Pol polyprotein [600-1027,Y780C]/[600-1155,Y780C] (Human immunodeficiency virus 1, UniProt P03366, Y780C)
# T2 construct: 600-1027; 600-1155
# [3] = biological target: T3, Gag-Pol polyprotein [600-1027,R876K]/[600-1155] (Human immunodeficiency virus 1, UniProt P03366, R876K)
# T3 construct: 600-1027; 600-1155
SMILES,IC50 [1] [µM],also measured
"CCN1c2ncc(CCc3ccncc3)cc2C(=O)N(C)c2ccc(C#N)nc21 [2,8-Disubstituted Dipyridodiazepinone 38]",> 1,
"CCN1c2ncc(CCc3ccnc(C(=O)O)c3)cc2C(=O)N(C)c2ccc(Cl)nc21 [2-Chloro-5,11-dihydro-11-ethyl-5-methyl-8-[2-(2-carboxypyrid-4-yl)ethyl]-6H-dipyrido[3,2-b:2 ,3-e][1,4]diazepin-6-one]",> 1,
"CCN1c2ncc(CCc3ccc4ccccc4c3)cc2C(=O)N(C)c2ccc(F)nc21 [2-ethyl-5-fluoro-9-methyl-13-[2-(naphthalen-2-yl)ethyl]-2,4,9,15-tetraazatricyclo[9.4.0.0^{3,8}]pentadeca-1(15),3(8),4,6,11,13-hexaen-10-one]",> 1,
"CCN1c2ncc(C)cc2C(=O)N(C)c2cccnc21 [2-ethyl-9,13-dimethyl-2,4,9,15-tetraazatricyclo[9.4.0.0^{3,8}]pentadeca-1(11),3,5,7,12,14-hexaen-10-one]",,"IC50 ([2]; pH 7.8, 22 °C): > 1 µM"
"CCN1c2ncc(C(=O)O)cc2C(=O)N(C)c2cccnc21 [2-ethyl-9-methyl-10-oxo-2,4,9,15-tetraazatricyclo[9.4.0.0^{3,8}]pentadeca-1(11),3,5,7,12,14-hexaene-13-carboxylic acid]",,"IC50 ([3]; pH 7.8, 22 °C): > 1 µM"
"CCN1c2ncc(CCc3ccccc3)cc2C(=O)N(C)c2ccc(-c3ccc[nH]3)nc21 [2-ethyl-9-methyl-13-(2-phenylethyl)-5-(1H-pyrrol-2-yl)-2,4,9,15-tetraazatricyclo[9.4.0.0^{3,8}]pentadeca-1(15),3(8),4,6,11,13-hexaen-10-one]",1.28,IC50 [2]: 0.52 µM; IC50 [3]: 0.59 µM
"CCN1c2ncc(CCc3nccs3)cc2C(=O)N(C)c2cccnc21 [2-ethyl-9-methyl-13-[2-(1,3-thiazol-2-yl)ethyl]-2,4,9,15-tetraazatricyclo[9.4.0.0^{3,8}]pentadeca-1(11),3,5,7,12,14-hexaen-10-one]",> 1,
"CCN1c2ncc(CCc3ccccc3C)cc2C(=O)N(C)c2cccnc21 [2-ethyl-9-methyl-13-[2-(2-methylphenyl)ethyl]-2,4,9,15-tetraazatricyclo[9.4.0.0^{3,8}]pentadeca-1(11),3,5,7,12,14-hexaen-10-one]",> 1,
"CCN1c2ncc(CCc3ccnc(C)c3)cc2C(=O)N(C)c2cccnc21 [2-ethyl-9-methyl-13-[2-(2-methylpyridin-4-yl)ethyl]-2,4,9,15-tetraazatricyclo[9.4.0.0^{3,8}]pentadeca-1(15),3(8),4,6,11,13-hexaen-10-one]",> 1,
"CCN1c2ncc(CCc3cccc(C)c3)cc2C(=O)N(C)c2cccnc21 [2-ethyl-9-methyl-13-[2-(3-methylphenyl)ethyl]-2,4,9,15-tetraazatricyclo[9.4.0.0^{3,8}]pentadeca-1(11),3,5,7,12,14-hexaen-10-one]",> 1,
"CCN1c2ncc(CCc3ccc(C)cc3)cc2C(=O)N(C)c2cccnc21 [2-ethyl-9-methyl-13-[2-(4-methylphenyl)ethyl]-2,4,9,15-tetraazatricyclo[9.4.0.0^{3,8}]pentadeca-1(11),3,5,7,12,14-hexaen-10-one]",> 1,IC50 [3]: 0.1 µM
"CCN1c2ncc(CCc3ccc4ccccc4c3)cc2C(=O)N(C)c2cccnc21 [2-ethyl-9-methyl-13-[2-(naphthalen-2-yl)ethyl]-2,4,9,15-tetraazatricyclo[9.4.0.0^{3,8}]pentadeca-1(15),3(8),4,6,11,13-hexaen-10-one]",> 1,
"CCN1c2ncc(CCc3ccccn3)cc2C(=O)N(C)c2cccnc21 [2-ethyl-9-methyl-13-[2-(pyridin-2-yl)ethyl]-2,4,9,15-tetraazatricyclo[9.4.0.0^{3,8}]pentadeca-1(11),3,5,7,12,14-hexaen-10-one]",> 1,IC50 [2]: > 1 µM
"CCN1c2ncc(CCc3cccnc3)cc2C(=O)N(C)c2cccnc21 [2-ethyl-9-methyl-13-[2-(pyridin-3-yl)ethyl]-2,4,9,15-tetraazatricyclo[9.4.0.0^{3,8}]pentadeca-1(11),3,5,7,12,14-hexaen-10-one]",> 1,IC50 [3]: 0.03 µM
"CCN1c2ncc(CCc3ccncc3)cc2C(=O)N(C)c2cccnc21 [2-ethyl-9-methyl-13-[2-(pyridin-4-yl)ethyl]-2,4,9,15-tetraazatricyclo[9.4.0.0^{3,8}]pentadeca-1(11),3,5,7,12,14-hexaen-10-one]",> 1,IC50 [2]: 0.13 µM; IC50 [3]: 0.05 µM
"CCN1c2ncc(CCc3cncnc3)cc2C(=O)N(C)c2cccnc21 [2-ethyl-9-methyl-13-[2-(pyrimidin-5-yl)ethyl]-2,4,9,15-tetraazatricyclo[9.4.0.0^{3,8}]pentadeca-1(11),3,5,7,12,14-hexaen-10-one]",> 1,IC50 [2]: > 1 µM
"CCN1c2ncc(-c3cccc(OC)c3)cc2C(=O)N(C)c2cccnc21 [2-ethyl-13-(3-methoxyphenyl)-9-methyl-2,4,9,15-tetraazatricyclo[9.4.0.0^{3,8}]pentadeca-1(11),3,5,7,12,14-hexaen-10-one]",,"IC50 ([2]; pH 7.8, 22 °C): > 1 µM; IC50 ([3]; pH 7.8, 22 °C): > 1 µM"

SMILES,IC50 [1] [µM],also measured
"CCN1c2ncc(/C=C/c3ccncc3)cc2C(=O)N(C)c2cccnc21 [5,11-Dihydro-11-ethyl-5-methyl-8-[trans-2-(4-pyridyl)ethen-1-yl]-6H-dipyrido[3,2-b:2 ,3-e][1,4]diazepin-6-one]",,IC50 [2]: > 1 µM
"CCN1c2ncc(CCc3ccccc3C)cc2C(=O)N(C)c2ccc(Cl)nc21 [5-chloro-2-ethyl-9-methyl-13-[2-(2-methylphenyl)ethyl]-2,4,9,15-tetraazatricyclo[9.4.0.0^{3,8}]pentadeca-1(15),3(8),4,6,11,13-hexaen-10-one]",> 1,IC50 [2]: > 1 µM; IC50 [3]: > 1 µM
"CCN1c2ncc(CCc3cccc(C)c3)cc2C(=O)N(C)c2ccc(Cl)nc21 [5-chloro-2-ethyl-9-methyl-13-[2-(3-methylphenyl)ethyl]-2,4,9,15-tetraazatricyclo[9.4.0.0^{3,8}]pentadeca-1(15),3(8),4,6,11,13-hexaen-10-one]",> 1,
"CCN1c2ncc(CCc3ccc(C)cc3)cc2C(=O)N(C)c2ccc(Cl)nc21 [5-chloro-2-ethyl-9-methyl-13-[2-(4-methylphenyl)ethyl]-2,4,9,15-tetraazatricyclo[9.4.0.0^{3,8}]pentadeca-1(15),3(8),4,6,11,13-hexaen-10-one]",> 1,
"CCN1c2ncc(CCc3ccc4ccccc4c3)cc2C(=O)N(C)c2ccc(Cl)nc21 [5-chloro-2-ethyl-9-methyl-13-[2-(naphthalen-2-yl)ethyl]-2,4,9,15-tetraazatricyclo[9.4.0.0^{3,8}]pentadeca-1(15),3(8),4,6,11,13-hexaen-10-one]",> 1,
"CCN1c2ncc(CCc3ccnc(CO)c3)cc2C(=O)N(C)c2ccc(Cl)nc21 [5-chloro-2-ethyl-13-{2-[2-(hydroxymethyl)pyridin-4-yl]ethyl}-9-methyl-2,4,9,15-tetraazatricyclo[9.4.0.0^{3,8}]pentadeca-1(15),3(8),4,6,11,13-hexaen-10-one]",> 1,
"CCN1c2ncc(CCc3ccccc3N)cc2C(=O)N(C)c2cccnc21 [13-[2-(2-aminophenyl)ethyl]-2-ethyl-9-methyl-2,4,9,15-tetraazatricyclo[9.4.0.0^{3,8}]pentadeca-1(15),3(8),4,6,11,13-hexaen-10-one]",> 1,
"CCN1c2ncc(CCc3cccc(N)c3)cc2C(=O)N(C)c2cccnc21 [13-[2-(3-aminophenyl)ethyl]-2-ethyl-9-methyl-2,4,9,15-tetraazatricyclo[9.4.0.0^{3,8}]pentadeca-1(15),3(8),4,6,11,13-hexaen-10-one]",> 1,
"CCN1c2ncc(CCc3cccc(N=[N+]=[N-])c3)cc2C(=O)N(C)c2ccc(Cl)nc21 [13-[2-(3-azidophenyl)ethyl]-5-chloro-2-ethyl-9-methyl-2,4,9,15-tetraazatricyclo[9.4.0.0^{3,8}]pentadeca-1(15),3(8),4,6,11,13-hexaen-10-one]",> 1,
"CCN1c2ncc(CCc3ccc(N)cc3)cc2C(=O)N(C)c2cccnc21 [13-[2-(4-aminophenyl)ethyl]-2-ethyl-9-methyl-2,4,9,15-tetraazatricyclo[9.4.0.0^{3,8}]pentadeca-1(15),3(8),4,6,11,13-hexaen-10-one]",> 1,
"CCN1c2ncc(CCc3ccc(N)cc3)cc2C(=O)N(C)c2ccc(Cl)nc21 [13-[2-(4-aminophenyl)ethyl]-5-chloro-2-ethyl-9-methyl-2,4,9,15-tetraazatricyclo[9.4.0.0^{3,8}]pentadeca-1(15),3(8),4,6,11,13-hexaen-10-one]",> 1,
"CCN1c2ncc(N)cc2C(=O)N(C)c2cccnc21 [13-amino-2-ethyl-9-methyl-2,4,9,15-tetraazatricyclo[9.4.0.0^{3,8}]pentadeca-1(11),3,5,7,12,14-hexaen-10-one]",,"IC50 ([3]; pH 7.8, 22 °C): 0.1 µM"
"CCN1c2ncc(Cl)cc2C(=O)N(C)c2cccnc21 [13-chloro-2-ethyl-9-methyl-2,4,9,15-tetraazatricyclo[9.4.0.0^{3,8}]pentadeca-1(11),3,5,7,12,14-hexaen-10-one]",,"IC50 ([2]; pH 7.8, 22 °C): > 1 µM"
"CCN1c2ncc(CCc3cccc(NS(C)(=O)=O)c3)cc2C(=O)N(C)c2ccc(Cl)nc21 [N-[3-(2-{5-chloro-2-ethyl-9-methyl-10-oxo-2,4,9,15-tetraazatricyclo[9.4.0.0^{3,8}]pentadeca-1(15),3(8),4,6,11,13-hexaen-13-yl}ethyl)phenyl]methanesulfonamide]",> 1,
"CCN1c2ncc(CCc3ccc(NS(C)(=O)=O)cc3)cc2C(=O)N(C)c2ccc(Cl)nc21 [N-[4-(2-{5-chloro-2-ethyl-9-methyl-10-oxo-2,4,9,15-tetraazatricyclo[9.4.0.0^{3,8}]pentadeca-1(15),3(8),4,6,11,13-hexaen-13-yl}ethyl)phenyl]methanesulfonamide]",> 1,
"CCN1c2ncc(/C=C/C(=O)OC)cc2C(=O)N(C)c2cccnc21 [methyl (2E)-3-{2-ethyl-9-methyl-10-oxo-2,4,9,15-tetraazatricyclo[9.4.0.0^{3,8}]pentadeca-1(11),3,5,7,12,14-hexaen-13-yl}prop-2-enoate]",,"IC50 ([3]; pH 7.8, 22 °C): > 1 µM"
